Measured values from paper PMC9982066, “Inhibition of Ehrlichia chaffeensis infection by cell-permeable macrocyclic peptides that bind type IV secretion effector Etf-1” (PNAS Nexus, 2023).
Starred links: 1 amine or outer side, 2 acyl side, 3 side chain; linkers in the order of their positions; H or OH if unused. Positions of bridges follow the written chain, without caps; N, C: chain ends. Non-standard residues stand in square brackets, D forms with d. Residues, ends and D or L forms follow the SMILES beside them. Trimesoyl = O=C(c1cc(C(=O)[*:2])cc(C(=O)[*:3])c1)[*:1]; Phe(4-Cl) = N[C@@H](Cc1ccc(Cl)cc1)C(=O)O; Phe(4-F) = N[C@@H](Cc1ccc(F)cc1)C(=O)O; d2Nal = N[C@H](Cc1ccc2ccccc2c1)C(=O)O; Orn = NCCC[C@H](N)C(=O)O; Dap = NC[C@H](N)C(=O)O

Experiments:
E. chaffeensis [1] = assay: morphological examination of E. chaffeensis infection of THP-1 cells by Diff-Quik staining; conditions: THP-1 cells, Fig. S4 (with Figs. 5, S3)
Experimental: Ehrlichia chaffeensis Arkansas strain ([43]) was cultured in THP-1 cells (ATCC, Manassas, VA, USA) in RPMI 1640 medium (Corning, Manassas, VA, USA) supplemented with 8% FBS (Atlanta Biologicals, Flowery Branch, GA, USA) and 4 mM L-glutamine (at 37°C under 5% CO2 in a humidified atmosphere. THP-1 cells were seeded at 1 × 10^5 cells/well (in 1.5-mL RPMI 1640 culture medium with 8% FBS, 4 mM L-Gln) in a 12-well plate, then infected with host cell-free E. chaffeensis at an MOI (multiplicity of infection, or numbers of bacteria per cell) of ∼30. Cells were cultured in a humidified incubator with 5% CO2 and 95% air. No antibiotic was used throughout the study. At 0.5 h post infection (pi), cells were incubated with 1–10 μM of peptides or with an equal volume of DMSO (solvent control, 2 μL per mL medium). At 2 days pi, cells were washed with 1 mL of PBS, and two drops of cells were cytospun onto glass slides by a Shandon Cytospin 4 cytocentrifuge (Thermo Fisher Scientific), then fixed and stained with HEMA 3 staining solutions (Thermo Fisher Scientific). Ehrlichia infection was observed and images were captured by a SPOT RT digital camera (Diagnostic Instruments, Sterling Heights, MI, USA) coupled to a Nikon Eclipse E400 microscope (Nikon, Melville, NY, USA).

E. chaffeensis [2] = assay: E. chaffeensis infection of THP-1 cells, qPCR of 16S rRNA gene normalized to human actin; type: cell-based, Ehrlichia chaffeensis; conditions: 10 μM, 2 days, vs DMSO control
Experimental: Therefore, we investigated whether these Etf-1-binding peptides can prevent the proliferation of E. chaffeensis inside host cells. THP-1 cells were infected with E. chaffeensis, then treated with the peptides at 30 min post infection (pi) for 2 days. Intracellular infection and proliferation of E. chaffeensis inside host THP-1 cells were assessed using quantitative PCR (qPCR) analysis based on E. chaffeensis 16S rRNA gene normalized by human actin (ACT) gene.
Fig. 5. Effects of Etf-1-binding peptides on E. chaffeensis infection of THP-1 cells. Ehrlichia chaffeensis-infected THP-1 cells at […] were incubated with 10 μM of Etf-1-binding macrocyclic peptide or DMSO control for 2 days.
No antibiotic was used throughout the study.
DNA was extracted from each sample using Qiagen blood mini kit according to the manufacturer's instructions (Qiagen, Valencia, CA, USA), and qPCR analysis was performed in an MX3000P qPCR instrument (Stratagene, San Diego, CA, USA) using SYBR Green Real-Time PCR Master Mix (Thermo Fisher Scientific) according to the manufacturer's instructions. Five-fold serial dilutions of the control group were used to generate a standard curve to calculate the relative copy numbers of E. chaffeensis 16S rRNA normalized against human actin genes using the MX3000P software from Stratagene as described previously ([18], [44]).

Etf-1 [3] = biological target: T1, Etf-1 (Ehrlichia chaffeensis, UniProt Q2GG12); assay: FP assay of Etf-1 binding with FAM-labeled peptides
T1 sequence (Q2GG12 entry or part of it): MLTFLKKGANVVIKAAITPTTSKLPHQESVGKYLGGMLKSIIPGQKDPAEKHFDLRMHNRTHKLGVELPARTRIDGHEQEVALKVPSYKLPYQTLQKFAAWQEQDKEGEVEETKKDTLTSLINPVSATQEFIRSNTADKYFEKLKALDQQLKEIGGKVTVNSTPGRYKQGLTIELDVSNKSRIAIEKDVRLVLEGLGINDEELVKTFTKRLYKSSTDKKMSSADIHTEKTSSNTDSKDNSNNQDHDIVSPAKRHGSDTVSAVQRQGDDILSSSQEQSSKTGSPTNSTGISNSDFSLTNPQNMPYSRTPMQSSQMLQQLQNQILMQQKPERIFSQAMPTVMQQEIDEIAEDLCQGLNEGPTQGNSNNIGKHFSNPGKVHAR
Experimental: The peptides were labeled at their C-terminus with carboxyfluorescein (FAM) through a β-Ala-β-Ala-Lys linker and evaluated for binding to Etf-1 by using a fluorescence polarization (FP) assay. […] This outcome is not unexpected, as screening OBOC libraries is often complicated by false positives, due to the presence of high ligand densities on library beads ([28]).
(§1) Fig. 2. Determination of binding affinity of Etf-1-binding peptides by FP assay. […] FAM-labeled peptide (50 nM) was incubated with serially diluted Etf-1 (starting from 25–30 μM in PBS, pH 7.4, supplemented with 5 mM DTT and 0.01% Triton X-100) for 1 h at RT. FP values were measured on a Tecan Infinite M1000 Pro plate reader. Titration curves (n ≥ 3) were fitted using GraphPad Prism and analyzed with TraceDrawer to calculate dissociation constants (KD). […] Data were analyzed using GraphPad Prism and fitted to a four-parameter variable slope equation to determine IC50 values.
Etf-1 and macrocyclic peptides were serially diluted in PBS supplemented with 5 mM DTT and 0.01% Triton X-100 (v/v). FAM-labeled peptides (50 nM) were prepared from a 10-μM DMSO stock and incubated with serially diluted Etf-1 for 1 h at room temperature (RT). Twenty microliters of the solutions were transferred to a black 384-well plate (Greiner Bio-One) and FP values were measured on a Tecan Infinite M1000 Pro plate reader with excitation and emission wavelengths at 470 and 535 nm, respectively. Titration curves (n ≥ 3) were fitted using GraphPad Prism v8.0 (GraphPad, La Jolla, CA, USA), and analyzed with TraceDrawer software v1.8 (Ridgeview Instruments AB, Uppsala, Sweden) to calculate the dissociation constant (KD, in nM).

THP-1 cells = assay: CellTiter-Glo luminescent cell viability assay; conditions: 2-day treatment
Description: THP-1 (human promyelocytic leukemia) cells are widely used as E. chaffeensis infection studies of human monocytes in vitro, since initial characterization of infection ([31]).
Fig. 4. Cytotoxicity and proteolytic stability of Etf-1-binding peptides. (A) Effect of Etf-1-binding peptides on the viability of THP-1 cells as determined by CellTiter-Glo luminescent assay. Relative luminescence was plotted as function of the peptide concentration, with the cell viability of DMSO control group set as 100%. (B) Plot of the amount of intact peptide remaining as a function of the incubation time in 25% human serum. All values are normalized to that of peptide at time 0 (100%).
Cytotoxicity of Etf-1-binding peptides was examined by CellTiter-Glo luminescent cell viability assay (Promega, Madison, WI, USA). THP-1 cells were seeded in a transparent 96-well plate at a density of 5 × 10^3 cells/well (100 μL in each well) in RPMI-1640 containing 10% FBS and 1% antibiotics and cultured overnight. Etf-1-binding peptides were serially diluted in DPBS from a DMSO stock and added to the cells with the final concentration of 0–25 μM and a constant final concentration of 0.5% DMSO (v/v). After incubation at 37°C with 5% CO2 for 46 h, the plate was removed and pre-equilibrated to RT before the addition of 100 μL of the CellTiter-Glo 2.0 reagent to each well. The plate was incubated for 15 min on a rotary shaker in the dark, and the luminescence was detected (1-s integration time) on a Tecan Infinite M1000 Pro microplate reader. Relative luminescence was plotted as function of the peptide concentration, with the cell viability of DMSO control group set as 100%.

Etf-1 [4] = biological target: T1, Etf-1; assay: biochemical; type: binding; conditions: unlabeled competitor peptides vs FAM-B7-133-8
Experimental: as §1
Serial dilutions of competitor peptide (0-20 μM) were prepared from DMSO stock solutions into PBS containing 0.01% Triton-X100 and 2 mM TCEP and added to aliquots of the equilibrated Etf-1/probe solution. After incubation for 1 h in the dark and with gentle mixing, 20 μL of each sample was transferred into 384-well black-on-black microplates and FP was measured using a TECAN Infinite M1000 plate reader. Data were analyzed using GraphPad PRISM ver. 8.0 and fit to a four-parameter variable slope equation to determine IC50 values. IC50 values reported are the mean ± SD of n = 2–4 independent experiments.

BECN1 binding to Etf-1 = assay: streptavidin magnetic beads pull-down of BECN1 with biotin-Etf-1, Western blot; type: biochemical; conditions: 10 µM peptide; for BECN1/Etf-1 Ratio: band intensities, DMSO control set as 1, Fig. 8B
Experimental: Fig. 8.
Streptavidin magnetic beads (15 µL, Pierce, Rockford, IL, USA) were washed with 1 mL of Bind/Wash buffer (25 mM Tris, pH 7.4; 250 mM NaCl, 0.1% Tween 20), and incubated with 0.15 µg ([…] final concentration) of biotinylated full-length Etf-1 protein in bind/wash buffer at 4°C overnight with end-to-end rotation. Beads were washed three times with Bind/Wash buffer, then incubated with Etf-1-binding macrocyclic peptides (10 µM) or DMSO control in Bind/Wash buffer at room temperature for 2 h. […] Beads were washed three times, and proteins were eluted from the beads with 50 µL of 2× SDS-sample buffer. […] Reacting bands were visualized with enhanced chemiluminescence by incubating the membrane with LumiGLO chemiluminescent reagent (Thermo Fisher Scientific). Images were captured by Amersham Imager 680 (GE Healthcare) and densitometry analysis was performed using ImagQuaNT (GE Healthcare). In each specimen, band intensities were normalized against those of actin as the loading control, and the ratios of the treatment group to the control group were calculated with the value in the control groups arbitrarily set as 1.0.

| Compound | E. chaffeensis infection (numbers and sizes of morulae) (E. chaffeensis [1]) | inhibition of E. chaffeensis infection (E. chaffeensis [2]) | Kd (Etf-1 [3]) [µM] | cell viability (THP-1 cells; 20 μM) | cytotoxicity (THP-1 cells; up to 10 μM) | competition for Etf-1 binding (Etf-1 [4]) | BECN1/Etf-1 Ratio (BECN1 binding to Etf-1) | disruption of BECN1 binding to Etf-1 (BECN1 binding to Etf-1; compared to DMSO control) |
| --- | --- | --- | --- | --- | --- | --- | --- | --- |
| CC(C)C[C@H]1NC(=O)[C@H](CO)NC(=O)[C@H]2CCCN2C(=O)[C@H](CCC(N)=O)NC(=O)[C@H](Cc2c[nH]cn2)NC(=O)[C@H](Cc2ccc(O)cc2)NC(=O)c2cc3cc(c2)C(=O)NC[C@H](NC1=O)C(=O)N[C@@H](Cc1ccc(Cl)cc1)C(=O)N[C@H](Cc1ccc2ccccc2c1)C(=O)N[C@H](CCCNC(=N)N)C(=O)N[C@@H](CCCNC(=N)N)C(=O)N[C@H](CCCNC(=N)N)C(=O)N[C@@H](CCCNC(=N)N)C(=O)N[C@H](C(N)=O)CNC3=O [Peptide B7-16, TMA-Tyr-His-Gln-pro-Ser-leu-Dap-4-ClPhe-nal-arg-Arg-arg-Arg-Dap] (YHQ[dP]S[dL][Dap][Phe(4-Cl)][d2Nal][dR]R[dR]R[Dap]-NH2; linker N-7-14 via Trimesoyl) | significantly inhibited | significantly inhibited | 2 ± 0.2 | slightly reduced the cell viability | no cytotoxicity | – | – | – |
| CC(C)C[C@H]1NC(=O)[C@H](Cc2ccc(F)cc2)NC(=O)[C@H](CCCN)NC(=O)[C@H](CC(=O)O)NC(=O)[C@H](CC(=O)O)NC(=O)[C@@H](C(C)C)NC(=O)[C@H](Cc2ccc(O)cc2)NC(=O)c2cc3cc(c2)C(=O)NC[C@H](NC1=O)C(=O)N[C@@H](Cc1ccc(Cl)cc1)C(=O)N[C@H](Cc1ccc2ccccc2c1)C(=O)N[C@H](CCCNC(=N)N)C(=O)N[C@@H](CCCNC(=N)N)C(=O)N[C@H](CCCNC(=N)N)C(=O)N[C@@H](CCCNC(=N)N)C(=O)N[C@H](C(N)=O)CNC3=O [Peptide B7-95-2, TMA-Tyr-val-Asp-Asp-Orn-Fpa-leu-Dap-4-ClPhe-nal-arg-Arg-arg-Arg-Dap] (Y[dV]DD[Orn][Phe(4-F)][dL][Dap][Phe(4-Cl)][d2Nal][dR]R[dR]R[Dap]-NH2; linker N-8-15 via Trimesoyl) | significantly inhibited | significantly inhibited | 0.74 ± 0.06 | – | – | Competition for Etf-1 binding was observed | – | – |
| CC(C)C[C@H]1NC(=O)[C@H](Cc2ccc(F)cc2)NC(=O)[C@@H](Cc2ccc(O)cc2)NC(=O)[C@@H](CC(C)C)NC(=O)[C@@H](C(C)C)NC(=O)[C@H](Cc2ccc(O)cc2)NC(=O)c2cc3cc(c2)C(=O)NC[C@H](NC1=O)C(=O)N[C@@H](Cc1ccc(Cl)cc1)C(=O)N[C@H](Cc1ccc2ccccc2c1)C(=O)N[C@H](CCCNC(=N)N)C(=O)N[C@@H](CCCNC(=N)N)C(=O)N[C@H](CCCNC(=N)N)C(=O)N[C@@H](CCCNC(=N)N)C(=O)N[C@H](C(N)=O)CNC3=O [Peptide B7-133-9, TMA-Tyr-val-leu-tyr-Fpa-leu-Dap-4-ClPhe-nal-arg-Arg-arg-Arg-Dap] (Y[dV][dL][dY][Phe(4-F)][dL][Dap][Phe(4-Cl)][d2Nal][dR]R[dR]R[Dap]-NH2; linker N-7-14 via Trimesoyl) | only slightly reduced | – | – | – | – | Competition for Etf-1 binding was observed | 1.19 | – |
| CC(C)[C@H]1NC(=O)[C@@H](CCC(=O)O)NC(=O)c2cc3cc(c2)C(=O)NC[C@H](NC(=O)CNC(=O)[C@H](Cc2c[nH]c4ccccc24)NC(=O)[C@H](Cc2ccc(O)cc2)NC1=O)C(=O)N[C@@H](Cc1ccccc1)C(=O)N[C@H](Cc1ccc2ccccc2c1)C(=O)N[C@H](CCCNC(=N)N)C(=O)N[C@@H](CCCNC(=N)N)C(=O)N[C@H](CCCNC(=N)N)C(=O)N[C@@H](CCCNC(=N)N)C(=O)N[C@H](C(N)=O)CNC3=O [Peptide C8, TMA-glu-val-Tyr-Trp-Gly-Dap-Phe-nal-arg-Arg-arg-Arg-Dap] ([dE][dV]YWG[Dap]F[d2Nal][dR]R[dR]R[Dap]-NH2; linker N-6-13 via Trimesoyl) | significantly inhibited | significantly inhibited | 5 ± 1.2 | – | – | – | 0.14 | disrupted BECN1 binding to Etf-1 |
| TMA-Tyr-Phg-Orn-ala-Ieu-Orn-leu-Dap-4-ClPhe-nal-arg-Arg-arg-Arg-Dap [Peptide B7-131-3] | – | – | – | – | – | Competition for Etf-1 binding was observed | – | – |
